{"source": "paper PMC10979453", "about": "“Antioxidant and Angiotensin-Converting Enzyme Inhibitory Activity of Faba Bean-Derived Peptides After In Vitro Gastrointestinal Digestion: Insight into Their Mechanism of Action” (Journal of Agricultural and Food Chemistry, 2024)", "key": {"[1]": {"molecular_target": "T1, Angiotensin-converting enzyme (ACE) from rabbit lung (Oryctolagus cuniculus, UniProt P12822)", "T1 construct": "Angiotensin-converting enzyme (ACE) from rabbit lung (A6778); purchased Sigma-Aldrich A6778; host or cells: rabbit lung (tissue-derived enzyme)", "T1 sequence (P12822 34-1310)": "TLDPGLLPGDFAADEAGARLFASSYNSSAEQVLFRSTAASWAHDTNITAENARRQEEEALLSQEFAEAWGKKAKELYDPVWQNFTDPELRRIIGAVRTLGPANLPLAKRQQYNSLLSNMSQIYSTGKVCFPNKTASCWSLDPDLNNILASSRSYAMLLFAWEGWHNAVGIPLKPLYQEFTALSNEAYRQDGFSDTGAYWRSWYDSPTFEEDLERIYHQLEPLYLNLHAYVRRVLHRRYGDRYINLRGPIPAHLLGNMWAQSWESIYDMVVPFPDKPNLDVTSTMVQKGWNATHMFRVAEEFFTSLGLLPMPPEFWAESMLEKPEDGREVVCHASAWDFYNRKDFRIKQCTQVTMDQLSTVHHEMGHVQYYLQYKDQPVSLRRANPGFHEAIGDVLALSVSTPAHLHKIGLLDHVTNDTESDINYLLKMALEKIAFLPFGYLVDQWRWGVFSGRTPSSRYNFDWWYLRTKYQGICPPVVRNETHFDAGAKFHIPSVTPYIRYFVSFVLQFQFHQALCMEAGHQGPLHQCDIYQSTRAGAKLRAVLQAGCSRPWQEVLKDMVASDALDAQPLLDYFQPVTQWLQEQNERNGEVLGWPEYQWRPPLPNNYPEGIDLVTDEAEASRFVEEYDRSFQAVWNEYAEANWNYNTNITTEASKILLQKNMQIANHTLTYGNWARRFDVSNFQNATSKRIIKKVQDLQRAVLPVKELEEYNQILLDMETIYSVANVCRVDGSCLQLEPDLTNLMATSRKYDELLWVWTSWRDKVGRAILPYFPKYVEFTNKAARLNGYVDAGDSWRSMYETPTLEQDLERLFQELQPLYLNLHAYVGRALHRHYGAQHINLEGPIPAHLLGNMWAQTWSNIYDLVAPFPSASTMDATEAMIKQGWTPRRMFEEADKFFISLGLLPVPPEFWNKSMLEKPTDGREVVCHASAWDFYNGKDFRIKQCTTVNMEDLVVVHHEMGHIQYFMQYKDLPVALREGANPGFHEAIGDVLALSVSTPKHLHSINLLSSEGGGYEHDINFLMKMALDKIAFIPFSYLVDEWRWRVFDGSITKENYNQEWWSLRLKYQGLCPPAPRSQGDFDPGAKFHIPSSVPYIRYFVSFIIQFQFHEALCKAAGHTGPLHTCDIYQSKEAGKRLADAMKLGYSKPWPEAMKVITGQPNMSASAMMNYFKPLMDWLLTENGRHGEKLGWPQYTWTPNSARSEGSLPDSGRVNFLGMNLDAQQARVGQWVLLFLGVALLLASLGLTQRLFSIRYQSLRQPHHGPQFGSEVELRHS", "assay": "in vitro ACE inhibitory activity (HHL substrate)", "format": "biochemical", "settings": "for IC50: mean ± SD; for inhibition at 10000 µM: peptide concentration 10 mM", "excerpt": "Angiotensin-converting enzyme (ACE) from rabbit lung (A6778), N-hippuryl–His–Leu hydrate (HHL) (H1635), and captopril were purchased from Sigma-Aldrich (St. Louis, MO, USA).\nACE from rabbits was used for in vitro testing, since rabbit and human ACE are nearly homologous and their active sites are highly similar.[24]"}, "[2]": {"molecular_target": "T1, Angiotensin-converting enzyme (ACE) from rabbit lung", "assay": "ACE inhibition kinetics (Lineweaver-Burk and secondary plots)", "format": "biochemical", "settings": "HHL 0.5–2 mM, read-out: inhibition constant (Ki)", "description": "A kinetic study was performed following the procedure of Barbana et al. (2011)[23] to determine the inhibition pattern of four faba bean peptides with ACE inhibition activity (VIPTEPPH, VIPTEPPHA, VVIPTEPPHA, and VVIPTEPPH). The initial rate of reaction was measured with different HHL (0.5–2 mM) and peptides concentrations. Lineweaver–Burk double reciprocal plots were built to identify the inhibition pattern.\nThe ACE inhibition pattern of VIPTEPPH, VIPTEPPHA, VVIPTEPPHA, and VVIPTEPPH was assessed through kinetic experiments. The initial velocity of reaction was measured at different substrate (0.5–2 mM) and peptide concentrations, and Lineweaver–Burk double reciprocal plots were built to identify the inhibition pattern. […] The inhibitor binding site is, therefore, located outside the enzyme active site. The loss of ACE activity in the presence of peptides can, therefore, be explained by conformational changes caused by peptide binding rather than competition for the active site.\nThe inhibition constant (Ki) was calculated from secondary plots for each peptide. The secondary plots were constructed by plotting the Lineweaver–Burk curve slope against the peptide concentration. The Ki value was calculated from the negative intercept on the X-axis of the secondary plot. […] These Ki values are nearly identical to the IC50, confirming the noncompetitive inhibition pattern. The minor differences in the IC50 and Ki values can be explained by experimental imprecision."}, "[3]": {"settings": "free amino acids; cited from earlier work"}, "[4]": {"assay": "ABTS free radical scavenging assay", "settings": "for ABTS activity, times lower than Trolox: range over the named peptides", "quoted_text": "(§1) For the DPPH, ABTS, and iron chelating assays, the peptides were first screened at a high dose (10 mM). […] The EC50 values were calculated using a four-parameter logistic curve regression, and Trolox was used as a positive control. For the ORAC assay, the results were expressed as μmol of Trolox equivalent per mM of peptides."}, "[5]": {"assay": "Oxygen Radical Absorption Capacity (ORAC) assay", "settings": "for ORAC activity per mg of peptides: as given in the text; for ORAC activity, times higher than Trolox: on a molar basis, range over the named peptides", "description": "2,2-Diphenyl-1-picrylhydrazyl (DPPH), 2,2′-azinobis(3-ethylbenzothiazoline-6-sulfonic acid) (ABTS), Oxygen Radical Absorption Capacity (ORAC), and the iron chelating assays were performed following the methods of Orona-Tamayo, Valverde, Nieto-Rendón, and Paredes-López (2015),[17] Re, Pellegrini, Proteggente, Pannala, Yang, and Rice-Evans (1999),[18] Tomer, McLeman, Ohmine, Scherer, Murray, and O’Neill (2007),[19] and of Orona-Tamayo et al. (2015),[17] respectively, as described in Martineau-Côté, Achouri, Wanasundara et al. (2022).[16] For the DPPH, ABTS, and iron chelating assays, the peptides were first screened at a high dose (10 mM). Peptides with antioxidant activity were then tested at different concentrations (0.1–10 mM) to evaluate the dose–response effect. The results were expressed as the half-maximal effective concentration (EC50), which was defined as the required peptide concentration, leading to 50% scavenging or chelating activity. The EC50 values were calculated using a four-parameter logistic curve regression, and Trolox was used as a positive control. For the ORAC assay, the results were expressed as μmol of Trolox equivalent per mM of peptides."}, "[6]": {"assay": "DPPH free radical scavenging assay", "settings": "mean ± SD; tested at 0.1–10 mM", "quoted_text": "as §1"}, "[7]": {"settings": "read-out: ACE Inhibition (IC50 μM)"}, "[8]": {"settings": "read-out: ACE Inhibition (IC50 μg/mL) (converted)"}}, "note": "Like-named read-outs stand apart in the source and are kept apart here. Peptide text beside a SMILES is read from it."}
{"compound": "CC[C@H](C)[C@H](NC(=O)[C@@H](N)C(C)C)C(=O)N1CCC[C@H]1C(=O)N[C@H](C(=O)N[C@@H](CCC(=O)O)C(=O)N1CCC[C@H]1C(=O)N1CCC[C@H]1C(=O)N[C@@H](Cc1c[nH]cn1)C(=O)N[C@@H](C)C(=O)O)[C@@H](C)O", "note": "[VIPTEPPHA] (H-VIPTEPPHA-OH)", "values": [{"measurement": "IC50", "setting": "[1]; [7]", "result": "123 ± 5", "unit": "µM"}, {"measurement": "IC50", "setting": "[1]; [8]", "result": 123, "unit": "µM"}, {"measurement": "inhibition at 10000 µM", "setting": "[1]", "result": 100, "unit": "%"}, {"measurement": "Ki", "setting": "[2]", "result": 107, "unit": "µM"}]}
{"compound": "CC[C@H](C)[C@H](NC(=O)[C@@H](N)C(C)C)C(=O)N1CCC[C@H]1C(=O)N[C@H](C(=O)N[C@@H](CCC(=O)O)C(=O)N1CCC[C@H]1C(=O)N1CCC[C@H]1C(=O)N[C@@H](Cc1c[nH]cn1)C(=O)O)[C@@H](C)O", "note": "[VIPTEPPH] (H-VIPTEPPH-OH)", "values": [{"measurement": "IC50", "setting": "[1]; [7]", "result": "90 ± 10", "unit": "µM"}, {"measurement": "IC50", "setting": "[1]; [8]", "result": 91.1, "unit": "µM"}, {"measurement": "inhibition at 10000 µM", "setting": "[1]", "result": 100, "unit": "%"}, {"measurement": "Ki", "setting": "[2]", "result": 87, "unit": "µM"}]}
{"compound": "CC[C@H](C)[C@H](NC(=O)[C@@H](NC(=O)[C@@H](N)C(C)C)C(C)C)C(=O)N1CCC[C@H]1C(=O)N[C@H](C(=O)N[C@@H](CCC(=O)O)C(=O)N1CCC[C@H]1C(=O)N1CCC[C@H]1C(=O)N[C@@H](Cc1c[nH]cn1)C(=O)N[C@@H](C)C(=O)O)[C@@H](C)O", "note": "[VVIPTEPPHA] (H-VVIPTEPPHA-OH)", "values": [{"measurement": "IC50", "setting": "[1]; [7]", "result": "50 ± 5", "unit": "µM"}, {"measurement": "IC50", "setting": "[1]; [8]", "result": 50, "unit": "µM"}, {"measurement": "inhibition at 10000 µM", "setting": "[1]", "result": 100, "unit": "%"}, {"measurement": "Ki", "setting": "[2]", "result": 54, "unit": "µM"}]}
{"compound": "CC[C@H](C)[C@H](NC(=O)[C@@H](NC(=O)[C@@H](N)C(C)C)C(C)C)C(=O)N1CCC[C@H]1C(=O)N[C@H](C(=O)N[C@@H](CCC(=O)O)C(=O)N1CCC[C@H]1C(=O)N1CCC[C@H]1C(=O)N[C@@H](Cc1c[nH]cn1)C(=O)O)[C@@H](C)O", "note": "[VVIPTEPPH] (H-VVIPTEPPH-OH)", "values": [{"measurement": "IC50", "setting": "[1]; [7]", "result": "43 ± 1", "unit": "µM"}, {"measurement": "IC50", "setting": "[1]; [8]", "result": 43.5, "unit": "µM"}, {"measurement": "inhibition at 10000 µM", "setting": "[1]", "result": 100, "unit": "%"}, {"measurement": "Ki", "setting": "[2]", "result": 45, "unit": "µM"}]}
{"compound": "N[C@@H](Cc1c[nH]cn1)C(=O)O", "note": "[histidine]", "values": [{"measurement": "ORAC activity", "setting": "[3]", "result": 78, "unit": "μMol TE eq/mM"}]}
{"compound": "N[C@@H](Cc1c[nH]c2ccccc12)C(=O)O", "note": "[tryptophan]", "values": [{"measurement": "ORAC activity", "setting": "[3]", "result": 2790, "unit": "μMol TE eq/mM"}]}
{"compound": "N[C@@H](Cc1ccc(O)cc1)C(=O)O", "note": "[tyrosine]", "values": [{"measurement": "ORAC activity", "setting": "[3]", "result": 1020, "unit": "μMol TE eq/mM"}]}
{"compound": "TETWNPNHPE [synthesized faba bean-derived peptide, parent protein legumin B]", "values": [{"measurement": "ABTS activity, times lower than Trolox", "setting": "[4]", "result": "8 to 66", "unit": "times"}, {"measurement": "ORAC activity", "setting": "[5]; as given in the abstract", "result": "2.84 ± 0.08", "unit": "mM Trolox equivalent/mM"}, {"measurement": "ORAC activity per mg of peptides", "setting": "[5]", "result": 2.3, "unit": "μMol Trolox eq/mg"}, {"measurement": "ORAC activity, times higher than Trolox", "setting": "[5]", "result": "2.5 to 2.8", "unit": "times"}]}
{"compound": "TETWNPNHPEL [synthesized faba bean-derived peptide, parent protein legumin B]", "values": [{"measurement": "EC50", "setting": "[6]", "result": "2100 ± 100", "unit": "µM"}, {"measurement": "EC50", "setting": "[4]; mean ± SD, tested at 0.1–10 mM", "result": "500 ± 200", "unit": "µM"}, {"measurement": "ABTS activity, times lower than Trolox", "setting": "[4]", "result": "8 to 66", "unit": "times"}, {"measurement": "ORAC activity per mg of peptides", "setting": "[5]", "result": 1.9, "unit": "μMol Trolox eq/mg"}, {"measurement": "ORAC activity, times higher than Trolox", "setting": "[5]", "result": "2.5 to 2.8", "unit": "times"}]}
